In ChEMBL document CHEMBL1201862, “PubChem BioAssay data set” (2004):
Blank lines part the entries; values can stand above or below the molecule they belong to. Calls of active or inactive are those of the source.

How the values were obtained:
[1] = test system: Escherichia coli; test: microbe, parasite or virus in culture
[2] = target: T1, Short transient receptor potential channel 4 (Mus musculus, UniProt Q9QUQ5); test: calcium entry via TRPC4 opening agents – cell-based, HEK293 TRPC4/mu-opioid, Fluo-4 calcium, dose response (AID 434937); type: functional
T1 sequence (Q9QUQ5 whole entry): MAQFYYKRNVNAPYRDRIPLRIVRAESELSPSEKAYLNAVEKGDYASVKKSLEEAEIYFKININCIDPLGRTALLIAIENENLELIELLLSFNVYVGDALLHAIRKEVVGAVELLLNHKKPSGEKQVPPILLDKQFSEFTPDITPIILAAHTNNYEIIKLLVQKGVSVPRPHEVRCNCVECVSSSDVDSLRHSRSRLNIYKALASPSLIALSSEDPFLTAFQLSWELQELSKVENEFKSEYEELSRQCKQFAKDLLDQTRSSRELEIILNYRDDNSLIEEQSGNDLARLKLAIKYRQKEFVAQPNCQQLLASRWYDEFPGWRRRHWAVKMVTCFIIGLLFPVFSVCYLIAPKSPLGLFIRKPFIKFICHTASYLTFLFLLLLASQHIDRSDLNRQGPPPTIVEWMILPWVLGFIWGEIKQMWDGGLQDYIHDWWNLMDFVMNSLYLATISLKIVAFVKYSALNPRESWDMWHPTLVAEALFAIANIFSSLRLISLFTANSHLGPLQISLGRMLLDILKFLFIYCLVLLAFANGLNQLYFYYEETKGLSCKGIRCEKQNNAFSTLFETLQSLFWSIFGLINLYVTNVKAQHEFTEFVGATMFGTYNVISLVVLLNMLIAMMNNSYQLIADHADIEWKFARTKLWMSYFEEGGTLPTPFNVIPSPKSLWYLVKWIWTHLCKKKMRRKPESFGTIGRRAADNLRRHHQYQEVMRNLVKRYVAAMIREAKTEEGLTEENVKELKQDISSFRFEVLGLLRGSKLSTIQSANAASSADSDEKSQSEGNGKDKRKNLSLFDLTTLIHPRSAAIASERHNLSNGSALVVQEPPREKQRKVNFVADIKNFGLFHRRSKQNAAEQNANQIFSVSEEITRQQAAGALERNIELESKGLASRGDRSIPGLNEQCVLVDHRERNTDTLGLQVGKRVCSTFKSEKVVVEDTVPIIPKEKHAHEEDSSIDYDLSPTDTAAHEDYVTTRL

[3] = target: Delta-type opioid receptor (Homo sapiens, UniProt P41143); test: Counterscreen for agonists of heterodimerization of the mu 1 (OPRM1) and delta 1 (OPRD1) opioid receptors: Luminescence-based cell-based high throughput dose response assay to identify agonists of OPRD1 homodimerization. [Related pubchem assays (depositor defined):AID504326, AID504355, AID504692, AID504904, AID504905]; type: functional
Chain of Delta-type opioid receptor (P41143 whole entry): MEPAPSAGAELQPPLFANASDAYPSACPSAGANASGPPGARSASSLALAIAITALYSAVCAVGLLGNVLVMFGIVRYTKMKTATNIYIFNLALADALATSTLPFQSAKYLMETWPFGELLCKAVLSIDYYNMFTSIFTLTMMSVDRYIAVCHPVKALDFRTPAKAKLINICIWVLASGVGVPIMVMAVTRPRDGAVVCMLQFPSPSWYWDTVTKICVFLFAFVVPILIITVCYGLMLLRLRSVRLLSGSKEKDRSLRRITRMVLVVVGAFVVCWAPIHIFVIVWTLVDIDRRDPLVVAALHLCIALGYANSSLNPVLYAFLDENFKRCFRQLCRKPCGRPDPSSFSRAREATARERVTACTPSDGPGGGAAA

[4] = target: Mu-type opioid receptor (Homo sapiens, UniProt P35372); test: Counterscreen for agonists of heterodimerization of the mu 1 (OPRM1) and delta 1 (OPRD1) opioid receptors: Luminescence-based cell-based high throughput dose response assay to identify agonists of OPRM1 homodimerization.; type: functional;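 note: U2OS cells expressing OPRM1 and beta-arrestin as split beta-galactosidase partners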
Chain of Mu-type opioid receptor (P35372 whole entry): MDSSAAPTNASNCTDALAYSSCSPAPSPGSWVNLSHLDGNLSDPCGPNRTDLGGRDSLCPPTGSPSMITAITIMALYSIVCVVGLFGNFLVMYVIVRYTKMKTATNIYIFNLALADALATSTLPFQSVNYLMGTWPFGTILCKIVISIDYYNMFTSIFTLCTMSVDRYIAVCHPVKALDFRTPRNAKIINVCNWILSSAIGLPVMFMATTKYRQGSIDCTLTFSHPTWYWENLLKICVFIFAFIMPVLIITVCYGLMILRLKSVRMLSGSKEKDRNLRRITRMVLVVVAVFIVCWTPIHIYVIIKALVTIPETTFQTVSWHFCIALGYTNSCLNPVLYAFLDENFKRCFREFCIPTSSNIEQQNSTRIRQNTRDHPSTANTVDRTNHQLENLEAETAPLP

[5] = target: 5-hydroxytryptamine receptor 5A (Homo sapiens, UniProt P47898); test: Counterscreen for agonists of OPRM1-OPRD1 heterodimerization: luminescence-based cell-based high throughput dose response assay to identify agonists of 5-hydroxytryptamine (serotonin) 5A receptor (HTR5A). [Related pubchem assays (depositor defined):AID504326, AID504355, AID504692, AID504904, AID504905]; type: functional
Chain of 5-hydroxytryptamine receptor 5A (P47898 whole entry): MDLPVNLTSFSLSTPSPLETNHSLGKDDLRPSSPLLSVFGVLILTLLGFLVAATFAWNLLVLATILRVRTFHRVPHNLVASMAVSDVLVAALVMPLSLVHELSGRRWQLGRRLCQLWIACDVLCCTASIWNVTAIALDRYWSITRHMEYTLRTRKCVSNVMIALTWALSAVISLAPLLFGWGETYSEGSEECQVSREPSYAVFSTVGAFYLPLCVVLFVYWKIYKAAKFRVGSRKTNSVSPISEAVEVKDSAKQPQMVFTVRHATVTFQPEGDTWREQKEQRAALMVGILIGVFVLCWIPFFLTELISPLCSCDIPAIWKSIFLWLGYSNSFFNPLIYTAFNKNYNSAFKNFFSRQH

[6] = target: Trypsin (Sus scrofa, UniProt P00761); test: trypsin protease activity blockade – biochemical, quenched peptide fluorescence, cherry-pick, selectivity assay for Rce1 protease inhibitor project, dose response (AID 488789)
Chain of Trypsin (P00761 whole entry): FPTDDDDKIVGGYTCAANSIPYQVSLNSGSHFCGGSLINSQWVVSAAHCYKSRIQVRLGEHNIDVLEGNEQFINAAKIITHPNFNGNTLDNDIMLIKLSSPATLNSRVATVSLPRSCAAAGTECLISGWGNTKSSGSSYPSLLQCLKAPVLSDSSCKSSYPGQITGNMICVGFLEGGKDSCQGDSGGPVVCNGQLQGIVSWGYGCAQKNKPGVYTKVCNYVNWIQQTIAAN

[7] = target: CAAX prenyl protease 2 (Homo sapiens, UniProt Q9Y256); test: inhibition of Ras-converting CAAX protease Rce1 – biochemical, yeast membranes, quenched-peptide fluorescence, cherry-pick, dose response (AID 588849)
Chain of CAAX prenyl protease 2 (Homo sapiens, UniProt Q9Y256) (Q9Y256 whole entry): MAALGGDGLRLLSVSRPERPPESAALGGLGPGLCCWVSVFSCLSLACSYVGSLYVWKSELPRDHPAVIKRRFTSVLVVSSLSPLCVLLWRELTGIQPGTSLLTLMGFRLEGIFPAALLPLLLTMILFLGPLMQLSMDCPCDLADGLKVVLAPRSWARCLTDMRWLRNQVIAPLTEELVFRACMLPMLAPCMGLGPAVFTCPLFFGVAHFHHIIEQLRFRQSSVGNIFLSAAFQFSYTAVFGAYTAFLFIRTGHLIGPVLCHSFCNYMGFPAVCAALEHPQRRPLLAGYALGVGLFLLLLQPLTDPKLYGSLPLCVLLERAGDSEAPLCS

[8] = target: Cytochrome P450 2C9 (Homo sapiens, UniProt P11712)
[9] = target: Intestinal-type alkaline phosphatase (Mus musculus, UniProt P24822); test: PubChem AID 488875; type: functional
Chain of Intestinal-type alkaline phosphatase (Mus musculus, UniProt P24822) (P24822 whole entry): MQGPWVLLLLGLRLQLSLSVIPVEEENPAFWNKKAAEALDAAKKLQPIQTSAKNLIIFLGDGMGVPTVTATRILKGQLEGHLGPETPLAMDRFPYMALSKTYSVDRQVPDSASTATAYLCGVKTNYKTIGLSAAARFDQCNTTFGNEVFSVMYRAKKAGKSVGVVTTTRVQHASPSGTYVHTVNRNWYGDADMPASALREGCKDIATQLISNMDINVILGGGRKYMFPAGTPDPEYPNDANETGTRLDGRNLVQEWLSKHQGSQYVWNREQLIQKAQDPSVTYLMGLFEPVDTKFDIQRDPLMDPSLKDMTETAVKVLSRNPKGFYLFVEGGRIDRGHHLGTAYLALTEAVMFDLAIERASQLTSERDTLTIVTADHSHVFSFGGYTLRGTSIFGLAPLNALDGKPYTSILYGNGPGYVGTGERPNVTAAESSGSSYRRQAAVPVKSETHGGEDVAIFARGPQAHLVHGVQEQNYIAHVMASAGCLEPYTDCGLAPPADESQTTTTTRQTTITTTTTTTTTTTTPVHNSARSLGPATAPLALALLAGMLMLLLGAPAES

[10] = target: T2, Intestinal-type alkaline phosphatase (Homo sapiens, UniProt P09923); test: human intestinal alkaline phosphatase activators, dose response, biochemical, luminescence, uHTS hits (AID 463120); type: functional
T2 sequence (P09923 whole entry): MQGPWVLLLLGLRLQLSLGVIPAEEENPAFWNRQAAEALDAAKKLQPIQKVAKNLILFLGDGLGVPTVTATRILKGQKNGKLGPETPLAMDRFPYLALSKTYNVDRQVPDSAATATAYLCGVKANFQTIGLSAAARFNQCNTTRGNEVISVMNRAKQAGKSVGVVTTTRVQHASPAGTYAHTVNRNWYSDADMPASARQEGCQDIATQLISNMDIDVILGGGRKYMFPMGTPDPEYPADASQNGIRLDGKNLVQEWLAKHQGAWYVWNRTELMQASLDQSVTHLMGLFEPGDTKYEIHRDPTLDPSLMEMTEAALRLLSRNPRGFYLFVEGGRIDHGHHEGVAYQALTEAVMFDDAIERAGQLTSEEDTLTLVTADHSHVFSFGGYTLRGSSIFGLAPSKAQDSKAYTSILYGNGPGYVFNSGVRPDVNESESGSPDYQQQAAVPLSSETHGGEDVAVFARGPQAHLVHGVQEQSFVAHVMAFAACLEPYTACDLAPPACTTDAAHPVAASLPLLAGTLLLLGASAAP

[11] = target: T2, Intestinal-type alkaline phosphatase; test: activation of human intestinal alkaline phosphatase – biochemical, luminescent, uHTS hits, set 2, dose response (AID 488817); type: functional;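 note: potency of activators that raise enzyme activity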
[12] = target: T3, Alkaline phosphatase, tissue-nonspecific isozyme (Homo sapiens, UniProt P05186); test: activation of tissue-nonspecific alkaline phosphatase – biochemical, TNAP isozyme, human IAP uHTS hits, selectivity assay for human IAP activator project, dose response (AID 488886); type: functional;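 note: potency of compounds raising TNAP activity as a selectivity check on IAP activators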
T3 sequence (P05186 whole entry): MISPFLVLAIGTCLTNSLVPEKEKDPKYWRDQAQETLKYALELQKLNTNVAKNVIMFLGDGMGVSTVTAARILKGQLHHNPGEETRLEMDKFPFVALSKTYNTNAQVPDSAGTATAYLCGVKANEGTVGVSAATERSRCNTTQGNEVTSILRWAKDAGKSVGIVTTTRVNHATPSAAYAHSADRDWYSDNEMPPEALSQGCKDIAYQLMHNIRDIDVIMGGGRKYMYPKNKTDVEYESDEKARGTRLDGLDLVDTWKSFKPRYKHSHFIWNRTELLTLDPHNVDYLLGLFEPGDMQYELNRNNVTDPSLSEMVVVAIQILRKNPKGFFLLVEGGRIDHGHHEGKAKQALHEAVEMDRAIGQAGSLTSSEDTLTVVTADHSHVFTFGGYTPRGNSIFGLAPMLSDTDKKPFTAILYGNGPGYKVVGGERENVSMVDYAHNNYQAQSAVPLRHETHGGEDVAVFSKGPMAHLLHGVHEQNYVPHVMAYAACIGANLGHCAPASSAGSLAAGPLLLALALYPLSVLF

[13] = target: Ras and Rab interactor 1/Tyrosine-protein kinase ABL1 (Homo sapiens, UniProt P00519+Q13671); type: functional;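 note: biochemical TR-FRET dose-response test measuring inhibition of binding between Rin1 and Abl proteins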
Chain of Ras and Rab interactor 1/Tyrosine-protein kinase ABL1 (P00519 whole entry): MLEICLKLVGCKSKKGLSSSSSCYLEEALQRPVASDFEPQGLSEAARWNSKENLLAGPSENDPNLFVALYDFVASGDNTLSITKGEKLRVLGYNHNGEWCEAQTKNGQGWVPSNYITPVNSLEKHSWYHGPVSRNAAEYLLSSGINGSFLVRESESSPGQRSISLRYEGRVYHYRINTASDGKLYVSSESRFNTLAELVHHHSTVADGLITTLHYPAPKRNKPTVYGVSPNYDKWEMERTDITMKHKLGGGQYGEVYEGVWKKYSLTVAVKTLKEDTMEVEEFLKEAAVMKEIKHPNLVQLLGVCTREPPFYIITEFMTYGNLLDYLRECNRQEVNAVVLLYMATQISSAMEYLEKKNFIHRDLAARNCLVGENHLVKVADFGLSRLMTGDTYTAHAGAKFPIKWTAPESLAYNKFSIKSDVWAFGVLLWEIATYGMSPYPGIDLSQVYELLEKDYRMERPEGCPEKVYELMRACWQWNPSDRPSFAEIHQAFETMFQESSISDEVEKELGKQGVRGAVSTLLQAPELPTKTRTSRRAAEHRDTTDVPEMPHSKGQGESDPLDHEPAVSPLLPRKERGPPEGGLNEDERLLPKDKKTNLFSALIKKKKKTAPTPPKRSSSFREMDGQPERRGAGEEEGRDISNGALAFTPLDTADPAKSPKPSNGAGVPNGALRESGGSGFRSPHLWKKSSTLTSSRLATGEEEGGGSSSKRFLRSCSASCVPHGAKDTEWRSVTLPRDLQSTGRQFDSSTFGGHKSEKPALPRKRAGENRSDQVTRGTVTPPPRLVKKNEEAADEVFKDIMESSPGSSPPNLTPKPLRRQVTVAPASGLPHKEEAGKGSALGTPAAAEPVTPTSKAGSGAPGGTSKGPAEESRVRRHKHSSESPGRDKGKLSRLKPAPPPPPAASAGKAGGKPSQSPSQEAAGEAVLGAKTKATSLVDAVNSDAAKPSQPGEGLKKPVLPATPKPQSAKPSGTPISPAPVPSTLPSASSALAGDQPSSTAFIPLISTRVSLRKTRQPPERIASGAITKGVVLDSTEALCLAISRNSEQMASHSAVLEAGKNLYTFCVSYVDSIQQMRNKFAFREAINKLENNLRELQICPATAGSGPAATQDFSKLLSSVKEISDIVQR
Chain of Ras and Rab interactor 1/Tyrosine-protein kinase ABL1 (Q13671 whole entry): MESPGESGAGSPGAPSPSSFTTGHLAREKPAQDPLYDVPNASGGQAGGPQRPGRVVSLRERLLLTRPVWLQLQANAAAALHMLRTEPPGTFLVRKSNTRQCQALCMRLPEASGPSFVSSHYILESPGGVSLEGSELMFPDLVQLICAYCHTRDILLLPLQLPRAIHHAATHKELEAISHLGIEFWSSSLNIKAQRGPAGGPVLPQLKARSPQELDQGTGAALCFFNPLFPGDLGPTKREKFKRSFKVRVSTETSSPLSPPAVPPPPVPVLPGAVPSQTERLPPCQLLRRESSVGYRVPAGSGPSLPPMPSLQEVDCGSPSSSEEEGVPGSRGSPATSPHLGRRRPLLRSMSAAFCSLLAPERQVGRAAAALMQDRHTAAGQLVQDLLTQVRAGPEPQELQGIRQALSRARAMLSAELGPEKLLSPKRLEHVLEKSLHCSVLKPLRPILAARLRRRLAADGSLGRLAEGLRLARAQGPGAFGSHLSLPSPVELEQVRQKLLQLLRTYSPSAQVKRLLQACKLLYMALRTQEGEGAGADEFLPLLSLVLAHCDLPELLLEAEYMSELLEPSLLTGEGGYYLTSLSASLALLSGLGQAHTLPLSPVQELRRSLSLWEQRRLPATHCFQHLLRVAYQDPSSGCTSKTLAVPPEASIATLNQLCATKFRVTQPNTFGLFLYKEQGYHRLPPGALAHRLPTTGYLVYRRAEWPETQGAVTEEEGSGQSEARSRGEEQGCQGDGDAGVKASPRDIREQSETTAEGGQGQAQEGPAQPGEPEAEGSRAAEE

[14] = target: CAAX prenyl protease 2 (Saccharomyces cerevisiae S288c, UniProt Q03530); type: biochemical
[15] = target: Cytochrome P450 3A4 (Homo sapiens, UniProt P08684);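 note: CYP3A4 tested as one member of a cytochrome P450 panel screen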

EC50 [2]: 0.0173 µM (active) | EC50 [3]: 1.07 µM (active) | EC50 [4]: 4.67 µM (active) | EC50 [5]: > 92.4 µM (inactive)
Compound: CN(C)C(CNC(=O)c1cnc(Cl)c(Cl)c1)c1ccccc1 (stereo not given)

EC50 [9]: 88 µM (active) | EC50 [10]: 82.8 µM (active) | EC50 [11]: 67.3 µM (active) | EC50 [12]: 66.1 µM (active) | IC50 [13]: 16.4 µM (inactive)
Compound: CC(C)n1cc(CN2CCC(C(=O)Nc3cccc(-c4cccc(Cl)c4)c3)CC2)cn1

AC50 [14]: > 100 µM (inactive) | AC50 [7]: > 100 µM (inactive)
Compound: Cc1nc(-c2ccc(Cl)cc2)sc1C1(C)CC(c2ccccc2Br)=NO1 (stereo not given)

AC50 [15]: inconclusive
Compound: Cc1nc2c(c(-c3ccccc3)c1C#N)C(=O)c1ccccc1-2

Second part, the molecule before the results:

Compound: COCc1cc(O)nc2cc(NC(=O)C(F)(F)F)c(C)cc12
AC50 [1]: 57.2 µM (active)

Compound: O=C1CCCN1CC(O)CS(=O)(=O)c1ccccc1 (stereo not given)
AC50 [6]: 1.72 µM (active) | AC50 [7]: 17.7 µM (active) | AC50 [8]: inconclusive

Compound: COc1ccccc1CN1CCC(n2nccc2NC(=O)CCCc2ccccc2)CC1
EC50 [9]: 51.3 µM (active) | EC50 [10]: 74 µM (active) | EC50 [11]: 60.4 µM (active) | EC50 [12]: 75.8 µM (active)
